According to the NIST ThermoML archive (doi:10.1021/je900478c):
Numbers after ± are expanded uncertainties.

Assay: refractive index (Na D-line) (dimensionless); xn = mol fraction of the nth substance listed
Conditions: 101 kPa, Liquid, Standard Abbe refractometry

Work on CCCCOCCO [2-butoxyethan-1-ol] + O yielded a refractive index (283.15 K, x1 = 0.1003) of 1.3785 ± 0.0008, a refractive index (283.15 K, x1 = 0.2) of 1.3965 ± 0.00041 and a refractive index (283.15 K, x1 = 0.3) of 1.4061 ± 0.00042. For the same compound, the refractive index (283.15 K, x1 = 0.4) was 1.4118 ± 0.00046, the refractive index (283.15 K, x1 = 0.5) was 1.4156 ± 0.00048 and the refractive index (283.15 K, x1 = 0.6) was 1.41823 ± 0.00049. The refractive index (283.15 K, x1 = 0.7) was 1.4199 ± 0.00051, the refractive index (283.15 K, x1 = 0.7999) was 1.4212 ± 0.00052 and the refractive index (283.15 K, x1 = 0.9) was 1.4221 ± 0.00053. For the same compound, the refractive index (283.15 K, x1 = 1) was 1.4226 ± 0.00054, the refractive index (293.15 K, x1 = 0.1003) was 1.37658 ± 0.00046 and the refractive index (293.15 K, x1 = 0.2) was 1.39418 ± 0.00048. For the same compound, the refractive index (293.15 K, x1 = 0.3) was 1.40355 ± 0.0005, the refractive index (293.15 K, x1 = 0.4) was 1.4091 ± 0.00051 and the refractive index (293.15 K, x1 = 0.5) was 1.4128 ± 0.00052. It also gave a refractive index (293.15 K, x1 = 0.6) of 1.41532 ± 0.00053, a refractive index (293.15 K, x1 = 0.7) of 1.41695 ± 0.00054 and a refractive index (293.15 K, x1 = 0.7999) of 1.41815 ± 0.00055. The refractive index (293.15 K, x1 = 0.9) was 1.41905 ± 0.00056, the refractive index (293.15 K, x1 = 1) was 1.4196 ± 0.00056 and the refractive index (303.15 K, x1 = 0.1003) was 1.374 ± 0.00048. It also gave a refractive index (303.15 K, x1 = 0.2) of 1.39115 ± 0.00051, a refractive index (303.15 K, x1 = 0.3) of 1.40025 ± 0.00054 and a refractive index (303.15 K, x1 = 0.4) of 1.40562 ± 0.00055. It also gave a refractive index (303.15 K, x1 = 0.5) of 1.4092 ± 0.00056, a refractive index (303.15 K, x1 = 0.6) of 1.4116 ± 0.00057 and a refractive index (303.15 K, x1 = 0.7) of 1.41315 ± 0.00058. It also gave a refractive index (303.15 K, x1 = 0.7999) of 1.4143 ± 0.00059, a refractive index (303.15 K, x1 = 0.9) of 1.4152 ± 0.0006 and a refractive index (303.15 K, x1 = 1) of 1.4157 ± 0.00061. For the same compound, the refractive index (313.15 K, x1 = 0.1003) was 1.37118 ± 0.0011, the refractive index (313.15 K, x1 = 0.2) was 1.3878 ± 0.00054 and the refractive index (313.15 K, x1 = 0.3) was 1.39655 ± 0.00056. The refractive index (313.15 K, x1 = 0.4) was 1.40175 ± 0.00057, the refractive index (313.15 K, x1 = 0.5) was 1.4052 ± 0.00058 and the refractive index (313.15 K, x1 = 0.6) was 1.4075 ± 0.00059. The refractive index (313.15 K, x1 = 0.7) was 1.40898 ± 0.0006, the refractive index (313.15 K, x1 = 0.7999) was 1.41012 ± 0.00061 and the refractive index (313.15 K, x1 = 0.9) was 1.41095 ± 0.00061. It also gave a refractive index (313.15 K, x1 = 1) of 1.41139 ± 0.00062, a refractive index (323.15 K, x1 = 0.2) of 1.38385 ± 0.0013 and a refractive index (323.15 K, x1 = 0.3) of 1.39248 ± 0.00066. It also gave a refractive index (323.15 K, x1 = 0.4) of 1.3976 ± 0.00062, a refractive index (323.15 K, x1 = 0.5) of 1.401 ± 0.00062 and a refractive index (323.15 K, x1 = 0.6) of 1.4032 ± 0.00062. For the same compound, the refractive index (323.15 K, x1 = 0.7) was 1.40465 ± 0.00061, the refractive index (323.15 K, x1 = 0.7999) was 1.40575 ± 0.00062 and the refractive index (323.15 K, x1 = 0.9) was 1.4066 ± 0.00063. For the same compound, the refractive index (323.15 K, x1 = 1) was 1.40701 ± 0.00063.

Compound CCCCOCCOCCO [3,6-dioxa-1-decanol] + O has a refractive index (283.15 K, x1 = 0.1) of 1.3916 ± 0.0011, a refractive index (283.15 K, x1 = 0.2) of 1.41105 ± 0.00041 and a refractive index (283.15 K, x1 = 0.2999) of 1.42035 ± 0.00043. The refractive index (283.15 K, x1 = 0.4) was 1.42548 ± 0.00048, the refractive index (283.15 K, x1 = 0.5) was 1.4286 ± 0.00051 and the refractive index (283.15 K, x1 = 0.6) was 1.4307 ± 0.00053. The refractive index (283.15 K, x1 = 0.7) was 1.4323 ± 0.00053, the refractive index (283.15 K, x1 = 0.7998) was 1.4334 ± 0.00055 and the refractive index (283.15 K, x1 = 0.8999) was 1.4342 ± 0.00056. It also gave a refractive index (283.15 K, x1 = 1) of 1.4347 ± 0.00057, a refractive index (293.15 K, x1 = 0.1) of 1.38935 ± 0.00046 and a refractive index (293.15 K, x1 = 0.2) of 1.40833 ± 0.00048. For the same compound, the refractive index (293.15 K, x1 = 0.2999) was 1.4174 ± 0.0005, the refractive index (293.15 K, x1 = 0.4) was 1.42235 ± 0.00051 and the refractive index (293.15 K, x1 = 0.5) was 1.42535 ± 0.00052. It also gave a refractive index (293.15 K, x1 = 0.6) of 1.42735 ± 0.00053, a refractive index (293.15 K, x1 = 0.7) of 1.4289 ± 0.00053 and a refractive index (293.15 K, x1 = 0.7998) of 1.4299 ± 0.00054. It also gave a refractive index (293.15 K, x1 = 0.8999) of 1.4307 ± 0.00055, a refractive index (293.15 K, x1 = 1) of 1.4312 ± 0.00056 and a refractive index (303.15 K, x1 = 0.1) of 1.38705 ± 0.00048. The refractive index (303.15 K, x1 = 0.2) was 1.4057 ± 0.00051, the refractive index (303.15 K, x1 = 0.2999) was 1.4146 ± 0.00052 and the refractive index (303.15 K, x1 = 0.4) was 1.41942 ± 0.00053. The refractive index (303.15 K, x1 = 0.5) was 1.4224 ± 0.00054, the refractive index (303.15 K, x1 = 0.6) was 1.42428 ± 0.00054 and the refractive index (303.15 K, x1 = 0.7) was 1.4258 ± 0.00055. For the same compound, the refractive index (303.15 K, x1 = 0.7998) was 1.42675 ± 0.00056, the refractive index (303.15 K, x1 = 0.8999) was 1.4275 ± 0.00057 and the refractive index (303.15 K, x1 = 1) was 1.42805 ± 0.00057. The refractive index (313.15 K, x1 = 0.1) was 1.3842 ± 0.00051, the refractive index (313.15 K, x1 = 0.2) was 1.4022 ± 0.00055 and the refractive index (313.15 K, x1 = 0.2999) was 1.4109 ± 0.00057. The refractive index (313.15 K, x1 = 0.4) was 1.41568 ± 0.00058, the refractive index (313.15 K, x1 = 0.5) was 1.4185 ± 0.00059 and the refractive index (313.15 K, x1 = 0.6) was 1.4204 ± 0.00059. It also gave a refractive index (313.15 K, x1 = 0.7) of 1.42185 ± 0.0006, a refractive index (313.15 K, x1 = 0.7998) of 1.42273 ± 0.00061 and a refractive index (313.15 K, x1 = 0.8999) of 1.4234 ± 0.00062. The refractive index (313.15 K, x1 = 1) was 1.424 ± 0.00062, the refractive index (323.15 K, x1 = 0.1) was 1.3808 ± 0.0015 and the refractive index (323.15 K, x1 = 0.2) was 1.3982 ± 0.0008. For the same compound, the refractive index (323.15 K, x1 = 0.2999) was 1.4067 ± 0.00068, the refractive index (323.15 K, x1 = 0.4) was 1.4113 ± 0.00065 and the refractive index (323.15 K, x1 = 0.5) was 1.41405 ± 0.00063. It also gave a refractive index (323.15 K, x1 = 0.6) of 1.4159 ± 0.00063, a refractive index (323.15 K, x1 = 0.7) of 1.41725 ± 0.00064 and a refractive index (323.15 K, x1 = 0.7998) of 1.41815 ± 0.00064. It also gave a refractive index (323.15 K, x1 = 0.8999) of 1.4188 ± 0.00064 and a refractive index (323.15 K, x1 = 1) of 1.4194 ± 0.00064.
